Values quoted from earlier work, collected in US20260041939A1, “METHODS FOR THE TREATMENT OF HY[…] TRANSCRANIAL-FOCUSED-ULTRASOUND” (SUNNYBROOK RESEARCH INSTITUTE, priority 2022, published 2026).

System: c-FOS expression
Details: microinjection into the tuberomammillary nucleus of rats

CCCC(C)C1(CC)C(=O)NC(=O)NC1=O (stereo not drawn) [Pentobarbital, pentobarbital]
c-FOS expression in the locus coeruleus: unchanged
c-FOS expression in the tuberomammillary nucleus: suppress
c-FOS expression in the ventrolateral preoptic nucleus (VLPO): increase
